One assay is filed under the species Mus musculus. The assay can be described thus: Protected dose which protects 50% of challenged mice from death owing to the Pasteurella multocida (59A006) infection. The following applies: read-out: PD50. It is filed as functional.
The subject of another assay is Pasteurella multocida. The assay can be described thus: Minimum inhibitory concentration required to inhibit Pasteurella multocida 59A006 in vitro. It is filed as functional.

≈ marks a conversion by molar mass, not a printed value.

Broadly, the MIC is the lowest concentration found to suppress growth. Consider `CCC1OC(=O)CC(O)C(C)C(O[C@@H]2O[C@H](C)C[C@H](N(C)C)[C@H]2O)C(CC=O)CC(C)C(=O)/C=C/C(C)=C/C1C` (some centres undefined), for which the ED50 in the assay filed under Mus musculus is over 200 mg/kg. This compound returned an MIC against Pasteurella multocida of 0.39 µg/mL (≈ 0.689 µM).

Take `CC[C@H]1OC(=O)CC(O)[C@H](C)[C@@H](O[C@@H]2O[C@H](C)C[C@H](N(C)C)[C@H]2O)[C@@H](CCN2CCCCC2)C[C@@H](C)C(=O)/C=C/C(C)=C/[C@@H]1C` (some centres undefined): the ED50 in the assay listed under Mus musculus turned out to be 150 mg/kg. Also, it took 0.2 µg/mL (≈ 0.315 µM) to inhibit growth against Pasteurella multocida (MIC).

As to `CC[C@H]1OC(=O)CC(O)[C@H](C)[C@@H](O[C@@H]2O[C@H](C)C[C@H](N(C)C)[C@H]2O)[C@@H](CCN(C)CCCN(C)C(=O)CNC)C[C@@H](C)C(=O)/C=C/C(C)=C/[C@@H]1C` (some centres undefined), the ED50 in the assay filed under Mus musculus stood at 6 mg/kg. Also, in the assay with Pasteurella multocida, inhibition of growth (MIC) required 0.39 µg/mL (≈ 0.539 µM).

Consider `CC[C@H]1OC(=O)CC(O)[C@H](C)[C@@H](O[C@@H]2O[C@H](C)C[C@H](N(C)C)[C@H]2O)[C@@H](CCN2CCCCC2)C[C@@H](C)C(=O)/C=C/[C@]2(C)O[C@H]2[C@@H]1C` (some centres undefined), for which, in the assay filed under Mus musculus, the ED50 was determined as 114 mg/kg. Moreover, the MIC with Pasteurella multocida came out at 0.2 µg/mL (≈ 0.307 µM).

`CC[C@H]1OC(=O)CC(O)[C@H](C)[C@@H](O[C@@H]2O[C@H](C)C[C@H](N(C)C)[C@H]2O)[C@@H](CCN2CCCCCC2)C[C@@H](C)C(=O)/C=C/C(C)=C/[C@@H]1C` (some centres undefined): in the assay filed under Mus musculus, the ED50 is over 200 mg/kg. In the assay with Pasteurella multocida, the minimum inhibitory concentration (MIC) stood at 0.1 µg/mL (≈ 0.154 µM).

Consider `CC[C@H]1OC(=O)CC(O)[C@H](C)[C@@H](O[C@@H]2O[C@H](C)C[C@H](N(C)C)[C@H]2O)[C@@H](CCNCC(O)CO)C[C@@H](C)C(=O)/C=C/C(C)=C/[C@@H]1C` (some centres undefined), for which the ED50 in the assay listed under Mus musculus was 10 mg/kg. Also, the MIC against Pasteurella multocida turned out to be 0.39 µg/mL (≈ 0.609 µM).

As for `CC[C@H]1OC(=O)CC(O)[C@H](C)[C@@H](O[C@@H]2O[C@H](C)C[C@H](N(C)C)[C@H]2O)[C@@H](CCN(CCCN(C)C)C(=O)CN)C[C@@H](C)C(=O)/C=C/C(C)=C/[C@@H]1C` (some centres undefined), in the assay filed under Mus musculus, the ED50 amounted to 4 mg/kg. In the assay on Pasteurella multocida, this compound came in with an MIC of 0.78 µg/mL (≈ 1.1 µM).

On to `CC[C@H]1OC(=O)CC(O)[C@H](C)[C@@H](O[C@@H]2O[C@H](C)C[C@H](N(C)C)[C@H]2O)[C@@H](CCN2CCCCCC2)C[C@@H](C)C(=O)/C=C/[C@]2(C)O[C@H]2[C@@H]1C` (some centres undefined), for which the ED50 in the assay filed under Mus musculus is 150 mg/kg. In addition, in the assay with Pasteurella multocida, inhibition of growth (MIC) required 0.2 µg/mL (≈ 0.301 µM).

In the case of `CC[C@H]1OC(=O)CC(O)[C@H](C)[C@@H](O[C@@H]2O[C@H](C)C[C@H](N(C)C)[C@H]2O)[C@@H](CCN(C)C)C[C@@H](C)C(=O)/C=C/[C@]2(C)O[C@H]2[C@@H]1C` (some centres undefined), the ED50 in the assay listed under Mus musculus was over 150 mg/kg. The same compound showed an MIC against Pasteurella multocida of 0.39 µg/mL (≈ 0.638 µM).

Consider `CC[C@H]1OC(=O)CC(O)[C@H](C)[C@@H](O[C@@H]2O[C@H](C)C[C@H](N(C)C)[C@H]2O)[C@@H](CCN(CCCN(C)C)C(=O)[C@H](C)N)C[C@@H](C)C(=O)/C=C/C(C)=C/[C@@H]1C` (some centres undefined), for which, in the assay listed under Mus musculus, the ED50 worked out at 3 mg/kg. The compound further came in with an MIC in the assay on Pasteurella multocida of 0.39 µg/mL (≈ 0.539 µM).

`CC[C@H]1OC(=O)CC(O)[C@H](C)[C@@H](O[C@@H]2O[C@H](C)C[C@H](N(C)C)[C@H]2O)[C@@H](CCN(C)CCCNC)C[C@@H](C)C(=O)/C=C/C(C)=C/[C@@H]1C` (some centres undefined): in the assay filed under Mus musculus, the ED50 was found to be 4 mg/kg. In addition, the MIC against Pasteurella multocida came out at 0.78 µg/mL (≈ 1.2 µM).

`CC[C@H]1OC(=O)CC(O)[C@H](C)[C@@H](O[C@@H]2O[C@H](C)C[C@H](N(C)C)[C@H]2O)[C@@H](CCN2CCCC2)C[C@@H](C)C(=O)/C=C/[C@]2(C)O[C@H]2[C@@H]1C` (some centres undefined): in the assay listed under Mus musculus, the ED50 is over 150 mg/kg. This compound returned an MIC against Pasteurella multocida of 0.78 µg/mL (≈ 1.22 µM).

Take `CC[C@H]1OC(=O)CC(O)[C@H](C)[C@@H](O[C@@H]2O[C@H](C)C[C@H](N(C)C)[C@H]2O)[C@@H](CCN2CC(O)C2)C[C@@H](C)C(=O)/C=C/C(C)=C/[C@@H]1C` (some centres undefined): the ED50 in the assay filed under Mus musculus is 19 mg/kg. For the same compound, in the assay with Pasteurella multocida, the MIC was 0.2 µg/mL (≈ 0.321 µM).

As for `CC[C@H]1OC(=O)CC(O)[C@H](C)[C@@H](O[C@@H]2O[C@H](C)C[C@H](N(C)C)[C@H]2O)[C@@H](CCN(CCCN(C)C)C(C)=O)C[C@@H](C)C(=O)/C=C/C(C)=C/[C@@H]1C` (some centres undefined), the ED50 in the assay listed under Mus musculus was over 25 mg/kg. Also, 0.39 µg/mL (≈ 0.562 µM) was the least that counted as inhibitory in the assay on Pasteurella multocida (MIC).

`CC[C@H]1OC(=O)CC(O)[C@H](C)[C@@H](O[C@@H]2O[C@H](C)C[C@H](N(C)C)[C@H]2O)[C@@H](CCN(C)CCCN(C)C(=O)[C@H](C)N)C[C@@H](C)C(=O)/C=C/C(C)=C/[C@@H]1C` (some centres undefined): in the assay listed under Mus musculus, the ED50 is 5 mg/kg. Further, the MIC against Pasteurella multocida is 0.39 µg/mL (≈ 0.539 µM).

For the compound `CO[C@@H]1[C@@H](O[C@@H]2O[C@H](C)[C@@H](O[C@H]3C[C@@](C)(O)[C@@H](OC(=O)CC(C)C)[C@@H](C)O3)[C@@H](N(C)C)[C@H]2O)[C@@H](CC=O)C[C@@H](C)C(=O)/C=C/C=C/C[C@@H](C)OC(=O)C[C@H]1OC(C)=O`, the ED50 in the assay listed under Mus musculus is over 150 mg/kg. In the assay with Pasteurella multocida, this compound yielded an MIC of 6.25 µg/mL (≈ 7.57 µM).

In the case of `CC[C@H]1OC(=O)CC(O)[C@H](C)[C@@H](O[C@@H]2O[C@H](C)C[C@H](N(C)C)[C@H]2O)[C@@H](CCN(C)CC)C[C@@H](C)C(=O)/C=C/C(C)=C/[C@@H]1C` (some centres undefined), the ED50 in the assay filed under Mus musculus came to 150 mg/kg. For the same compound, the MIC against Pasteurella multocida was found to be 0.2 µg/mL (≈ 0.328 µM).

As for `CC[C@H]1OC(=O)CC(O)[C@H](C)[C@@H](O[C@@H]2O[C@H](C)C[C@H](N(C)C)[C@H]2O)[C@@H](CCN(C)CCNC)C[C@@H](C)C(=O)/C=C/C(C)=C/[C@@H]1C` (some centres undefined), the ED50 in the assay filed under Mus musculus is over 20 mg/kg. The compound further displayed an MIC against Pasteurella multocida of 0.2 µg/mL (≈ 0.314 µM).

On to `CC[C@H]1OC(=O)CC(O)[C@H](C)[C@@H](O[C@@H]2O[C@H](C)C[C@H](N(C)C)[C@H]2O)[C@@H](CCN(C)CCCN(C)C)C[C@@H](C)C(=O)/C=C/C(C)=C/[C@@H]1C` (some centres undefined), for which the ED50 in the assay filed under Mus musculus came to 26 mg/kg. 0.1 µg/mL (≈ 0.15 µM) was the least that counted as inhibitory with Pasteurella multocida (MIC).

Take `CC[C@H]1OC(=O)CC(O)[C@H](C)[C@@H](O[C@@H]2O[C@H](C)C[C@H](N(C)C)[C@H]2O)[C@@H](CCN2CCN(C)CC2)C[C@@H](C)C(=O)/C=C/C(C)=C/[C@@H]1C` (some centres undefined): the ED50 in the assay listed under Mus musculus was over 150 mg/kg. The minimal inhibitory concentration (MIC) with Pasteurella multocida was 0.39 µg/mL (≈ 0.6 µM).

Regarding `CC[C@H]1OC(=O)CC(O)[C@H](C)[C@@H](O[C@@H]2O[C@H](C)C[C@H](N(C)C)[C@H]2O)[C@@H](CCN(C)CCN(C)C(=O)[C@H](C)N)C[C@@H](C)C(=O)/C=C/C(C)=C/[C@@H]1C` (some centres undefined), the ED50 in the assay filed under Mus musculus came out at 12 mg/kg. In the assay with Pasteurella multocida, this compound yielded an MIC of 0.05 µg/mL (≈ 0.0705 µM).

Regarding `CC[C@H]1OC(=O)CC(O)[C@H](C)[C@@H](O[C@@H]2O[C@H](C)C[C@H](N(C)C)[C@H]2O)[C@@H](CCN(C)CCN(C)C(=O)CN)C[C@@H](C)C(=O)/C=C/C(C)=C/[C@@H]1C` (some centres undefined), the ED50 in the assay filed under Mus musculus is 4 mg/kg. In the assay with Pasteurella multocida, this compound registered an MIC of 0.2 µg/mL (≈ 0.288 µM).

In the case of `CC[C@H]1OC(=O)CC(O)[C@H](C)[C@@H](O[C@@H]2O[C@H](C)C[C@H](N(C)C)[C@H]2O)[C@@H](CCN(C)C)C[C@@H](C)C(=O)/C=C/C(C)=C/[C@@H]1C` (some centres undefined), the ED50 in the assay listed under Mus musculus is 150 mg/kg. The same compound yielded an MIC against Pasteurella multocida of 0.39 µg/mL (≈ 0.656 µM).

Take `CC[C@H]1OC(=O)CC(O)[C@H](C)[C@@H](O[C@@H]2O[C@H](C)C[C@H](N(C)C)[C@H]2O)[C@@H](CCN(CC)CC)C[C@@H](C)C(=O)/C=C/[C@]2(C)O[C@H]2[C@@H]1C` (some centres undefined): the ED50 in the assay filed under Mus musculus stood at 123 mg/kg. Moreover, the MIC in the assay on Pasteurella multocida was 0.78 µg/mL (≈ 1.22 µM).

On to `CC[C@H]1OC(=O)CC(O)[C@H](C)[C@@H](O[C@@H]2O[C@H](C)C[C@H](N(C)C)[C@H]2O)[C@@H](CCNC(C)(C)C)C[C@@H](C)C(=O)/C=C/C(C)=C/[C@@H]1C` (some centres undefined), for which the ED50 in the assay filed under Mus musculus was 150 mg/kg. The MIC with Pasteurella multocida is 0.39 µg/mL (≈ 0.626 µM).

`CC[C@H]1OC(=O)CC(O)[C@H](C)[C@@H](O[C@@H]2O[C@H](C)C[C@H](N(C)C)[C@H]2O)[C@@H](CCN2CCCC2)C[C@@H](C)C(=O)/C=C/C(C)=C/[C@@H]1C` (some centres undefined): the ED50 in the assay filed under Mus musculus amounted to 128 mg/kg. This compound also displayed an MIC against Pasteurella multocida of 0.39 µg/mL (≈ 0.628 µM).

In the case of `CC[C@H]1OC(=O)CC(O)[C@H](C)[C@@H](O[C@@H]2O[C@H](C)C[C@H](N(C)C)[C@H]2O)[C@@H](CCN(CCCN(C)C)C(=O)CNC)C[C@@H](C)C(=O)/C=C/C(C)=C/[C@@H]1C` (some centres undefined), in the assay listed under Mus musculus, the ED50 amounted to 6 mg/kg. Also, the MIC with Pasteurella multocida stood at 1.56 µg/mL (≈ 2.16 µM).

The record behind these values is ChEMBL document CHEMBL1130408, “Repromicin derivatives with potent antibacterial activity against Pasteurella multocida” (1997).
